Values joined by “and” are separate entries in the source; they are usually repeats but may differ in a detail not shown here. Equal values may be shown once. Read-outs that look alike come from different tables or passages of the source.
What was measured:
[1] = molecular target: VCB: PROTAC: SMARCA2^BD ternary complex (Homo sapiens, UniProt P40337+P51531); test: TR-FRET ternary complex affinity and cooperativity, SMARCA2; assay type: binding; set-up: P51531-2, residues 1373-1493 with additional N-terminal SM residues; GST (TEV site) (N); His6 (TEV site) (N, cleaved yes); made in house; host or cells: SMARCA2^BD: Escherichia coli BL21(DE3)
[2] = molecular target: T1, (Homo sapiens, UniProt P51532); test: TR-FRET ternary complex affinity and cooperativity, SMARCA4; assay type: binding
T1 construct: P51532, residues 1448–1569 with additional N-terminal SM residues; GST (TEV site) (N); His6 (TEV site) (N, cleaved yes); made in house; host or cells: SMARCA4^BD: Escherichia coli BL21(DE3)

SMARCA4^BD = molecular target: T2, SMARCA4^BD (Homo sapiens, UniProt P51532); test: SPR binding to immobilised SMARCA4 bromodomain
T2 construct: P51532, residues 1448–1569 with additional N-terminal SM residues; GST (TEV site) (N, cleaved yes); made in house; host or cells: Escherichia coli BL21(DE3); construct from SGC Toronto
Procedure: SMARCA4^BD was provided by the Structural Genomics Consortium (SGC), Toronto[32] and SMARCA2^BD and PRM1^BD5 were synthesised by GeneArt then subcloned into pDEST15 vectors (Invitrogen). The VCB complex was expressed and purified as described previously, with the modification that 0.3 mM IPTG was used for induction of expression. […] Both were stored in 20 mM 4-(2-hydroxyethyl)−1-piperazineethanesulfonic acid (HEPES), 150 mM sodium chloride and 1 mM tris(2-carboxyethyl)phosphine (TCEP) pH 7.5. SMARCA2^BD, SMARCA4^BD and PBRM1^BD5 were expressed in Escherichia coli BL21(DE3) as N-terminal GST fusion proteins with a TEV protease cleavage site. Expression and purification of these proteins has been described previously[32],[33]. Starter cultures were grown overnight at 37 °C in 10 mL of Luria-Bertani (LB) medium with ampicillin (100 μg/mL). The starter cultures were diluted (1:100) in Terrific Broth (TB) medium with ampicillin (100 μg/mL) and grown in a shaking incubator at 37 °C to an optical density (OD600) ~1 before the temperature was lowered for induction (to 23 °C for SMARCA2^BD or 18 °C for SMARCA4^BD and PRRM1^BD5). […] Cells were harvested by centrifugation and stored at −80 °C prior to purification. Cells were resuspended in Lysis buffer and lysed by sonication (20 pulses of 5 s for 4 min) using a Sonopuls HD 3080 (Bandelin, Berlin, Germany) or by homogenisation using a Stansted Pressure Cell Homogeniser (Stansted Fluid Power). The Lysis buffers were as follows: for SMARCA2^BD: 50 mM HEPES, 500 mM sodium chloride, 5% glycerol, 5 mM dithiothreitol (DTT); for SMARCA4^BD: 25 mM HEPES, 0.3 M sodium chloride, 5% glycerol, 10 mM DTT, pH 7.5; for PBRM1^BD5: 25 mM HEPES, 300 mM sodium chloride, 5% glycerol, 10 mM DTT, pH 7.8; in each case supplemented with complete protease inhibitors (Roche). Affinity purification was performed using Glutathione Sepharose 4B (GE Healthcare) in batch mode or on-column. […] For SMARCA2^BD, prior to TEV protease cleavage the eluted GST-tagged BD was first dialysed into desalting buffer (20 mM HEPES, 250 mM sodium chloride, pH 7.0 + 0.5% glycerol). Where TEV cleavage was performed in solution, a second affinity (GST-trap) column purification step was carried out to remove the GST-tag and uncleaved GST-tagged protein. Proteins were further purified by SEC (HiLoad Superdex-75, 16/600) (GE Healthcare) and stored in Storage buffer (for SMARCA2^BD: 20 mM HEPES, 150 mM sodium chloride, pH 7.5; for SMARCA4^BD: 10 mM HEPES, 0.5 M NaCl, 5% glycerol, pH 7.5; for PBRM1^BD5: 20 mM HEPES, 300 mM NaCl, 5 mM DTT, pH 7.8). For AlphaScreen assays, eluted GST-tagged BDs were purified directly by SEC in the respective storage buffers without TEV cleavage. All chromatography purification steps were performed either at room temperature or 4 °C using an ÄKTA FPLC purification system (GE Healthcare) or a plastic Econo-Pac column (Bio-Rad).
SPR data were acquired on Biacore 8K or T200 instruments (Cytiva). Target proteins were immobilised at 25 °C on CM5 chips by amine coupling (EDC/NHS, Cytiva) in HBS-P+ running buffer (pH 7.4), containing 2 mM TCEP. After surface activation with EDC/NHS (contact time 420 s, flow rate 10 µl/min) SMARCA2^BD and SMARCA4^BD at 0.01–0.05 mg/ml in coupling buffer (10 mM Na-Acetate pH 6.5, 0.005% TWEEN 20 and 50 µM PFI-3[13]) were immobilised to a density of 100–5000 Response Units (RU). The reference surface was subsequently deactivated using 1 M ethanolamine. For VCB immobilisation, streptavidin (Sigma Aldrich, prepared at 1 mg/ml in 10 mM sodium acetate coupling buffer, pH 5.0) was immobilised by amine coupling to a density of 3000–5000 RU after which biotinylated VCB complex (0.125 mM in running buffer) was streptavidin-coupled to a density of 100–500 RU. Biotinylated VCB was prepared as previously described[27]: in brief, the complex was mixed 1:1 with EZ-Link NHS–PEG4–biotin (Thermo Scientific) and incubated at room temperature for 1 h.

[3] = PROTAC + VCB, individual replicates, read-out: Ternary SMARCA2 BD EC50 (PROTAC + VCB)
[4] = TR-FRET competition for SMARCA2BD, + VCB, mean ± SD, read-out: TR-FRET Ternary SMARCA2BD EC50 (PROTAC + VCB)
[5] = TR-FRET competition for SMARCA4BD, without VCB, mean ± SD, read-out: TR-FRET SMARCA4BD EC50
[6] = binary, PROTAC alone, individual replicates, read-out: SMARCA4 BD EC50

T2 sequence (P51532 1448-1569): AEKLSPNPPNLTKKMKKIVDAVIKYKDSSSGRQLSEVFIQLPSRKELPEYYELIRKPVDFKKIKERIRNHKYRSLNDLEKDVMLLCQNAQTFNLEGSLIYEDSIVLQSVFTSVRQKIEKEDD
T1 sequence (P51532 1448-1569): as above
VCB: PROTAC: SMARCA2^BD ternary complex, sequence (P51531 with tags, fused parts or gaps isoform P51531-2): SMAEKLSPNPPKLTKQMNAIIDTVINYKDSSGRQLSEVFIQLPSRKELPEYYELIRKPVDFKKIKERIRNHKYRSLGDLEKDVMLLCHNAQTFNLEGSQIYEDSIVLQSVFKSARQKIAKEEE
VCB: PROTAC: SMARCA2^BD ternary complex, sequence (P40337 54-213): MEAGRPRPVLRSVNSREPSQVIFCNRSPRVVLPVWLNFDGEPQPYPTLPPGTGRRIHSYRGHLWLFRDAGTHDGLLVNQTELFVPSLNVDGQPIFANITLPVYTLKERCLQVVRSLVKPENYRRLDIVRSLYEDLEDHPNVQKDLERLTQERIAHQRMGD
VCB: PROTAC: SMARCA2^BD ternary complex, sequence (Q15369 17-112 partner): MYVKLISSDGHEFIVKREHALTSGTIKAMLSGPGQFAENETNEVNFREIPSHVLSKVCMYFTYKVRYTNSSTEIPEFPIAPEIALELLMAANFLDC
VCB: PROTAC: SMARCA2^BD ternary complex, sequence (Q15370 1-104 partner): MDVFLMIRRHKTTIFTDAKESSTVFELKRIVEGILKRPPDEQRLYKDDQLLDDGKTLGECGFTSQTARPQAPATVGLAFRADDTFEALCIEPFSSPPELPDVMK

In the case of Cc1ncsc1-c1ccc([C@H](CC[C@H](C)CCN2CCC(c3ccc4c(c3)n(C3CCCC3)c3nc(=O)c5c(Br)cccc5n43)CC2)NC(=O)[C@@H]2C[C@H](O)CN2C(=O)[C@@H](NC(=O)C2(F)CC2)C(C)(C)C)cc1 [compound 12], the EC50 [1, 3] is reported as 0.148 µM and 0.161 µM and 0.256 µM and 0.158 µM, the EC50 [1, 4] is reported as 0.181 ± 0.044 µM and the EC50 [2, 5] is reported as 0.347 ± 0.041 µM. For the same molecule, the EC50 [2, 6] was > 0.4 µM and 0.339 µM and 0.302 µM, the Kd (SMARCA4^BD; SMARCA4BD, mean ± SD) was 0.362 ± 0.052 µM and the Kd (SMARCA4^BD; individual replicates) was 0.306 µM and 0.408 µM and 0.37 µM.
Molecule CN1CCN(c2nc(=O)c3c(Cl)cccc3o2)CC1 [compound 13] has an EC50 [1, 3] greater than 10 µM, an EC50 [2, 6] greater than 10 µM and a Kd (SMARCA4^BD; SMARCA4BD, mean ± SD) of 35.6 ± 0.346 µM. For the same molecule, the Kd (SMARCA4^BD; individual replicates) was 31.6 µM and 37.5 µM and 37.7 µM.
In the case of CN1CCN(c2nc(=O)c3ccccc3o2)CC1 [compound 14], the EC50 [1, 3] is reported as greater than 10 µM, the EC50 [2, 6] is reported as greater than 10 µM and the Kd (SMARCA4^BD; individual replicates) is reported as > 200 µM and 140 µM.
CN1CCN(c2nc(=O)c3c(Br)cccc3o2)CC1 [compound 15] gave an EC50 [1, 3] greater than 10 µM, an EC50 [2, 6] greater than 10 µM and a Kd (SMARCA4^BD; SMARCA4BD, mean ± SD) of 12 ± 0.902 µM. The Kd (SMARCA4^BD; individual replicates) was 12.9 µM and 11.9 µM and 11.1 µM.
CN1CCN(c2nc(=O)c3c(I)cccc3o2)CC1 [compound 16] showed an EC50 [1, 3] greater than 10 µM, an EC50 [2, 6] greater than 10 µM and a Kd (SMARCA4^BD; SMARCA4BD, mean ± SD) of 22.1 ± 1.23 µM. For the same molecule, the Kd (SMARCA4^BD; individual replicates) was 23.1 µM and 20.7 µM and 22.4 µM.
For CN1CCN(c2nc(=O)c3c(F)cccc3o2)CC1 [compound 17], the EC50 [1, 3] was greater than 10 µM and the EC50 [2, 6] was greater than 10 µM.
With Cc1ncsc1-c1ccc(CNC(=O)[C@@H]2C[C@H](O)CN2C(=O)[C@@H](NC(=O)C2(F)CC2)C(C)(C)C)c(OCCN2CCC(c3ccc4c(c3)n(C3CCCC3)c3nc(=O)c5c(Br)cccc5n43)CC2)c1 [compound 19] the EC50 [1, 3] was 0.0691 µM and 0.0759 µM and 0.0704 µM, the EC50 [1, 4] was 0.072 ± 0.003 µM and the EC50 [2, 5] was 0.158 ± 0.027 µM. For the same molecule, the EC50 [2, 6] was 0.194 µM and 0.151 µM and 0.129 µM, the Kd (SMARCA4^BD; SMARCA4BD, mean ± SD) was 0.138 ± 0.043 µM and the Kd (SMARCA4^BD; individual replicates) was 0.0982 µM and 0.132 µM and 0.183 µM.
With Cc1ncsc1-c1ccc(CNC(=O)[C@@H]2C[C@@H](O)CN2C(=O)[C@@H](NC(=O)C2(F)CC2)C(C)(C)C)c(OCCN2CCC(c3ccc4c(c3)n(C3CCCC3)c3nc(=O)c5c(Br)cccc5n43)CC2)c1 [compound 20] the EC50 [1, 3] was 0.14 µM and 0.137 µM and 0.122 µM and 0.109 µM and 0.217 µM, the EC50 [1, 4] was 0.141 ± 0.042 µM and the EC50 [2, 5] was 0.12 ± 0.017 µM. For the same molecule, the EC50 [2, 6] was 0.101 µM and 0.114 µM and 0.13 µM and 0.14 µM, the Kd (SMARCA4^BD; SMARCA4BD, mean ± SD) was 0.182 ± 0.023 µM and the Kd (SMARCA4^BD; individual replicates) was 0.157 µM and 0.202 µM and 0.187 µM.
